Experimental data from patent US10865208B2, “ATG7 inhibitors and the uses thereof” (Millennium Pharmaceuticals, Inc., priority 2016, dated 2020).

Target: recombinant human His-ATG7 enzyme (Homo sapiens (Human), UniProt O95352)
Assay: ATG7 Enzyme Assay (HTRF/FRET, ATG3-GST and Flag-Gabarap)
Type: biochemical
Conditions: for inhibition at 0.069 µM: Concentration 0.069 μM; for inhibition at 0.069 µM / inhibition at 0.111 µM / inhibition at 0.123 µM: read-out: Percent Inhibition; for inhibition at 0.123 µM: Concentration 0.123 μM
In short: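 0.15 nM His-ATG7 was reacted with 5 nM ATG3-GST, 5 nM Flag-Gabarap and 10 μM ATP in HEPES pH 7.5 containing MgCl2, GSH and TCEP for 105 min at 24° C, then stopped with EDTA/KF. Eu-anti-Flag and anti-GST-APC HTRF was read after 2 h. Results are given as single-concentration % inhibition or IC50.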

Chain of recombinant human His-ATG7 enzyme (O95352 whole entry): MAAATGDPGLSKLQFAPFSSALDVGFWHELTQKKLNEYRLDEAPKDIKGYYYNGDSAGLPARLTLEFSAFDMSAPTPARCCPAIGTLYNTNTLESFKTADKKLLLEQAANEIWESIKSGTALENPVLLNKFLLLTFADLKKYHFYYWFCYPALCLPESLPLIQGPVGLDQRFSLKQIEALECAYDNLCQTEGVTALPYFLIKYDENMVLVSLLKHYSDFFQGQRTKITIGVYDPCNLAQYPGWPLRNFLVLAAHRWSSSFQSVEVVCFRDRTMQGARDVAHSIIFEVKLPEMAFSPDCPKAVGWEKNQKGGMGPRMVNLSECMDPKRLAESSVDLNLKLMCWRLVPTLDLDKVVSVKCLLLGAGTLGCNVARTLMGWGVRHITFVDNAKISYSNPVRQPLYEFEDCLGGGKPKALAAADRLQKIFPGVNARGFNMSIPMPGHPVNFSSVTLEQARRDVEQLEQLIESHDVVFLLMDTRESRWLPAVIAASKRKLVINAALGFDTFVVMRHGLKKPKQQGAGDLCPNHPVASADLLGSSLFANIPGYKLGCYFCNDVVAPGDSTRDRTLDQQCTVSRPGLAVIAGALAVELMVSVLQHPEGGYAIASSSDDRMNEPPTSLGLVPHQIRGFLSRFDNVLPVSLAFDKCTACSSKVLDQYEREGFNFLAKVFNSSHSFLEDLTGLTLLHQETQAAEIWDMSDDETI

IC50 [nM] | inhibition at 0.069 µM [%] | inhibition at 0.111 µM (Concentration 0.111 μM) [%] | inhibition at 0.123 µM [%] | Percent Inhibition (Concentration 0.111 μM) [%] | SMILES
50 to 100 | 48 | – | – | – | Nc1ncnc2c1c(C(F)(F)F)nn2[C@@H]1O[C@H](COS(N)(=O)=O)[C@@H](O)[C@H]1O [Compound I-10, {(2R,3S,4R,5R)-5-[4-amino-3-(trifluoromethyl)-1H-pyrazolo[3,4-d]pyrimidin-1-yl]-3,4-dihydroxytetrahydrofuran-2-yl}methyl Sulfamate]
100 to 500 | – | 48 | – | – | Nc1ncnc2c1c(C(F)(F)F)nn2[C@H]1C[C@H](O)[C@@H](COS(N)(=O)=O)O1 [Compound I-171, {(2R,3S,5R)-5-[4-amino-3-(trifluoromethyl)-1H-pyrazolo[3,4-d]pyrimidin-1-yl]-3-hydroxytetrahydrofuran-2-yl}methyl Sulfamate]
20 to 50 | – | 73 | – | – | Nc1ncnc2c1c(Sc1ccc([N+](=O)[O-])cn1)nn2[C@@H]1O[C@H](COS(N)(=O)=O)[C@@H](O)[C@@H]1F [Compound I-111, [(2R,3R,4S,5R)-5-{4-amino-3-[(5-nitropyridin-2-yl)sulfanyl]-1H-pyrazolo[3,4-d]pyrimidin-1-yl}-4-fluoro-3-hydroxytetrahydrofuran-2-yl]methyl sulfamate]
100 to 500 | – | – | 22 | – | CC(=O)c1nn([C@@H]2O[C@H](COS(N)(=O)=O)[C@@H](O)[C@H]2O)c2ncnc(N)c12 [Compound I-21, [(2R,3S,4R,5R)-5-(3-acetyl-4-amino-1H-pyrazolo[3,4-d]pyrimidin-1-yl)-3,4-dihydroxytetrahydrofuran-2-yl]methyl Sulfamate]
20 to 50 | – | – | 75 | – | C#CCSc1nn([C@@H]2O[C@H](COS(N)(=O)=O)[C@@H](O)[C@H]2O)c2ncnc(N)c12 [Compound I-43, {(2R,3S,4R,5R)-5-[4-amino-3-(prop-2-yn-1-ylsulfanyl)-1H-pyrazolo[3,4-d]pyrimidin-1-yl]-3,4-dihydroxytetrahydrofuran-2-yl}methyl sulfamate]
20 to 50 | – | – | 83 | – | Nc1ncnc2c1c(SCc1ccccc1)nn2[C@@H]1O[C@H](COS(N)(=O)=O)[C@@H](O)[C@H]1O [Compound I-52, {(2R,3S,4R,5R)-5-[4-amino-3-(benzylsulfanyl)-1H-pyrazolo[3,4-d]pyrimidin-1-yl]-3,4-dihydroxytetrahydrofuran-2-yl}methyl sulfamate]
100 to 500 | – | 48 | – | – | CSc1nn([C@H]2C[C@H](O)[C@H](COS(N)(=O)=O)O2)c2ncnc(N)c12 [Compound I-219, {(2S,3S,5R)-5-[4-amino-3-(methylsulfanyl)-1H-pyrazolo[3,4-d]pyrimidin-1-yl]-3-hydroxytetrahydrofuran-2-yl}methyl Sulfamate]
50 to 100 | – | – | 69 | – | Cc1occc1Sc1nn([C@@H]2O[C@H](COS(N)(=O)=O)[C@@H](O)[C@H]2O)c2ncnc(N)c12 [Compound I-81, [(2R,3S,4R,5R)-5-{4-amino-3-[(2-methyl-3-furyl)sulfanyl]-1H-pyrazolo[3,4-d]pyrimidin-1-yl}-3,4-dihydroxytetrahydrofuran-2-yl]methyl sulfamate]
– | – | 7 | – | – | CCc1nn([C@H]2C[C@H](O)[C@H](COS(N)(=O)=O)O2)c2ncnc(N)c12 [Compound I-212, [(2S,3S,5R)-5-(4-amino-3-ethyl-1H-pyrazolo[3,4-d]pyrimidin-1-yl)-3-hydroxytetrahydrofuran-2-yl]methylsulfamate]
100 to 500 | – | – | 42 | – | Cc1nn([C@@H]2O[C@H](COS(N)(=O)=O)[C@@H](O)[C@H]2O)c2ncnc(N)c12 [Compound I-2, [(2R,3S,4R,5R)-5-(4-amino-3-methyl-1H-pyrazolo[3,4-d]pyrimidin-1-yl)-3,4-dihydroxytetrahydrofuran-2-yl]methyl Sulfamate]
20 to 50 | – | – | 83 | – | Nc1ncnc2c1c(SCc1ccc(Cl)o1)nn2[C@@H]1O[C@H](COS(N)(=O)=O)[C@@H](O)[C@H]1O [Compound I-73, [(2R,3S,4R,5R)-5-(4-amino-3-{[(5-chloro-2-furyl)methyl]sulfanyl}-1H-pyrazolo[3,4-d]pyrimidin-1-yl)-3,4-dihydroxytetrahydrofuran-2-yl]methyl sulfamate]
20 to 50 | – | – | 80 | – | Nc1ncnc2c1c(Sc1ccccc1Cl)nn2[C@@H]1O[C@H](COS(N)(=O)=O)[C@@H](O)[C@H]1O [Compound I-78, [(2R,3S,4R,5R)-5-{4-amino-3-[(2-chlorophenyl)sulfanyl]-1H-pyrazolo[3,4-d]pyrimidin-1-yl}-3,4-dihydroxytetrahydrofuran-2-yl]methyl sulfamate]
20 to 50 | – | 84 | – | – | CC(C)Sc1nn([C@@H]2O[C@H](COS(N)(=O)=O)[C@@H](O)[C@@H]2F)c2ncnc(N)c12 [Compound I-139, {(2R,3R,4S,5R)-5-[4-amino-3-(isopropylsulfanyl)-1H-pyrazolo[3,4-d]pyrimidin-1-yl]-4-fluoro-3-hydroxytetrahydrofuran-2-yl}methyl Sulfamate]
20 to 50 | – | – | 76 | – | Nc1ncnc2c1c(SCC1=CCCCC1)nn2[C@@H]1O[C@H](COS(N)(=O)=O)[C@@H](O)[C@H]1O [Compound I-91, [(2R,3S,4R,5R)-5-{4-amino-3-[(cyclohex-1-en-1-ylmethyl)sulfanyl]-1H-pyrazolo[3,4-d]pyrimidin-1-yl}-3,4-dihydroxytetrahydrofuran-2-yl]methyl Sulfamate]
50 to 100 | – | 65 | – | – | Cc1ccc(Sc2nn([C@H]3C[C@H](O)[C@@H](COS(N)(=O)=O)O3)c3ncnc(N)c23)cc1C [Compound I-196, [(2R,3S,5R)-5-{4-amino-3-[(3,4-dimethylphenyl)sulfanyl]-1H-pyrazolo[3,4-d]pyrimidin-1-yl}-3-hydroxytetrahydrofuran-2-yl]methyl sulfamate]
50 to 100 | – | 63 | – | – | Cc1ccc(F)c(Sc2nn([C@H]3C[C@H](O)[C@@H](COS(N)(=O)=O)O3)c3ncnc(N)c23)c1 [Compound I-191, [(2R,3S,5R)-5-{4-amino-3-[(2-fluoro-5-methylphenyl)sulfanyl]-1H-pyrazolo[3,4-d]pyrimidin-1-yl}-3-hydroxytetrahydrofuran-2-yl]methyl sulfamate]
50 to 100 | – | 66 | – | – | Nc1ncnc2c1c(Sc1ccc3c(c1)OCO3)nn2[C@H]1C[C@H](O)[C@@H](COS(N)(=O)=O)O1 [Compound I-175, {(2R,3S,5R)-5-[4-amino-3-(1,3-benzodioxol-5-ylsulfanyl)-1H-pyrazolo[3,4-d]pyrimidin-1-yl]-3-hydroxytetrahydrofuran-2-yl}methyl sulfamate]
< 20 | – | 83 | – | – | Nc1ncnc2c1c(SCC1CCC1)nn2[C@@H]1O[C@H](COS(N)(=O)=O)[C@@H](O)[C@@H]1F [Compound I-148, [(2R,3R,4S,5R)-5-{4-amino-3-[(cyclobutylmethyl)sulfanyl]-1H-pyrazolo[3,4-d]pyrimidin-1-yl}-4-fluoro-3-hydroxytetrahydrofuran-2-yl]methyl sulfamate]
20 to 50 | – | – | 73 | – | Nc1ncnc2c1c(SCc1cccnc1)nn2[C@@H]1O[C@H](COS(N)(=O)=O)[C@@H](O)[C@H]1O [Compound I-45, [(2R,3S,4R,5R)-5-{4-amino-3-[(pyridin-3-ylmethyl)sulfanyl]-1H-pyrazolo[3,4-d]pyrimidin-1-yl}-3,4-dihydroxytetrahydrofuran-2-yl]methyl sulfamate]
20 to 50 | – | 67 | – | – | Nc1ncnc2c1c(Sc1ccc(Cl)cc1)nn2[C@@H]1O[C@H](COS(N)(=O)=O)[C@@H](O)[C@@H]1F [Compound I-133, [(2R,3R,4S,5R)-5-{4-amino-3-[(4-chlorophenyl)sulfanyl]-1H-pyrazolo[3,4-d]pyrimidin-1-yl}-4-fluoro-3-hydroxytetrahydrofuran-2-yl]methyl sulfamate]
20 to 50 | – | – | 77 | – | Nc1ncnc2c1c(SC(F)F)nn2[C@@H]1O[C@H](COS(N)(=O)=O)[C@@H](O)[C@H]1O [Compound I-85, [(2R,3S,4R,5R)-5-{4-amino-3-[(difluoromethyl)sulfanyl]-1H-pyrazolo[3,4-d]pyrimidin-1-yl}-3,4-dihydroxytetrahydrofuran-2-yl]methyl sulfamate]
100 to 500 | 23 | – | – | – | CCOc1nn([C@@H]2O[C@H](COS(N)(=O)=O)[C@@H](O)[C@H]2O)c2ncnc(N)c12 [Compound I-5, [(2R,3S,4R,5R)-5-(4-amino-3-ethoxy-1H-pyrazolo[3,4-d]pyrimidin-1-yl)-3,4-dihydroxytetrahydrofuran-2-yl]methyl Sulfamate]
100 to 500 | 17 | – | – | – | CC#Cc1nn([C@@H]2O[C@H](COS(N)(=O)=O)[C@@H](O)[C@H]2O)c2ncnc(N)c12 [Compound I-14, {(2R,3S,4R,5R)-5-[4-amino-3-(prop-1-yn-1-yl)-1H-pyrazolo[3,4-d]pyrimidin-1-yl]-3,4-dihydroxytetrahydrofuran-2-yl}methyl Sulfamate]
100 to 500 | – | 42 | – | – | Nc1ncnc2c1c(Sc1cccc(OC(F)(F)F)c1)nn2[C@H]1C[C@H](O)[C@@H](COS(N)(=O)=O)O1 [Compound I-198, [(2R,3S,5R)-5-(4-amino-3-{[3-(trifluoromethoxy)phenyl]sulfanyl}-1H-pyrazolo[3,4-d]pyrimidin-1-yl)-3-hydroxytetrahydrofuran-2-yl]methyl sulfamate]
50 to 100 | – | – | – | 63 | CCC(C)Sc1nn([C@@H]2O[C@H](COS(N)(=O)=O)[C@@H](O)[C@@H]2F)c2ncnc(N)c12 (single isomer, unassigned) [Compound I-136a]
